What was measured:
[1] = target: T1, human relaxin receptors (THP-1 cells) (Homo sapiens, UniProt Q9HBX9); test: THP-1 cell bioassay (cAMP production); type: cell-based; settings: doses up to 1 μM
T1 construct: induce cAMP production in the human monocytic cell line (THP-1); endogenous in cells; host or cells: THP-1 (human monocytic cell line)
T1 sequence (Q9HBX9 1-757): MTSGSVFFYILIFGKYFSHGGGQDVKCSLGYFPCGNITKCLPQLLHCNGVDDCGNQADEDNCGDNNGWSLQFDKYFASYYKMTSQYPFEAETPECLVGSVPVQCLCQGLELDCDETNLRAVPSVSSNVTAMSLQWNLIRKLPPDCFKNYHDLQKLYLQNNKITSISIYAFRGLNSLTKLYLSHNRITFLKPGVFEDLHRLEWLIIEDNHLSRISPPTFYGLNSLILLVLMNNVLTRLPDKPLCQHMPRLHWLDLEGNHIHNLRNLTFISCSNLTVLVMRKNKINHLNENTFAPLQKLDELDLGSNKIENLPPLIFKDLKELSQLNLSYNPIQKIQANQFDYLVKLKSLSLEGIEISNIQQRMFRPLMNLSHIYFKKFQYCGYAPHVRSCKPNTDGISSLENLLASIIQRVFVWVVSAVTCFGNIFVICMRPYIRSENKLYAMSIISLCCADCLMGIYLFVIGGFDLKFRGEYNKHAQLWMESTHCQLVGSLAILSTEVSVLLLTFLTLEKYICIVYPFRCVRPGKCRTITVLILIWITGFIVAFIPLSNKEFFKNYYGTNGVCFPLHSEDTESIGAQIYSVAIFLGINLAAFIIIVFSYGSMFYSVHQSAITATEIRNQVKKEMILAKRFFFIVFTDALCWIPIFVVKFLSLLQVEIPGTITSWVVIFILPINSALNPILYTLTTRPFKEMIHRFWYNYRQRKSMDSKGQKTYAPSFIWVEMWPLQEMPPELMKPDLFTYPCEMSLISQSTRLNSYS
Description: Biol. Chem. 271, 27936-27941), with the following modifications; […] The plate was then briefly centrifuged, the media removed and the cells resuspended in lysis buffer. cAMP levels were measured in the lysates using the cAMP Biotrak EIA system (Amersham International, Aylesbury, UK). […] Data represent the mean±SEM of three experiments performed in quadruplicate, and are plotted using PRISM (Graphpad Inc., San Diego, Calif.).

[2] = tested on: goat anti-H2 relaxin antibody; test: Antibody crossreactivity radioimmunoassay (displacement of 125I-labeled H2 relaxin); type: binding; settings: FIG. 4
Description: The ability of well characterized human relaxin antibodies to recognize H3 relaxin was tested in comparison to H1 and H2 relaxins by radioimmunoassay. Briefly, goat anti-H2 relaxin (Lucas et al (1989) J. Endocrinol. 120, 449-57) was coated onto 96 well ELISA plates (Disposable Products, Adelaide, Australia) at a dilution of 1:1000 with 0.05M sodium carbonate buffer at 4° C. overnight. After washing twice with PBS-T (phosphate buffered saline; 0.05% Tween 20, pH 7.4) dilutions of human relaxin peptides dissolved in 50 μl of assay buffer (1% BSA in PBS-T) were added together with 50,000 cpm ^125I-labeled relaxin, in 50 μl of assay buffer. H2 relaxin was ^125I-labeled and purified by HPLC (Palejwala et al (1998) Endocrinology 139, 1208-1212). After an overnight incubation at 4° C. the plates were washed twice with PBS-T. The antibody-bound-^125I-labeled H2 relaxin was collected by the addition of 1M NaOH and decanted into tubes for counting on a Packard 5010 gamma counter (Canberra Packard). Experiments were performed at least twice and similar results obtained. Data was plotted as the mean±SEM from one representative experiment performed in triplicate and plotted using PRISM.

[3] = target: T2, relaxin binding sites in THP-1 cells (Homo sapiens, UniProt Q9HBX9); test: THP-1 cell binding assay (competition for 33P-labeled H2 relaxin (B33))
T2 construct: induce cAMP production in the human monocytic cell line (THP-1); endogenous in cells; host or cells: THP-1 (human monocytic cell line)
T2 sequence (Q9HBX9 1-757): T1 sequence (Q9HBX9 1-757)
Description: THP-1 cells were spun down and resuspended in binding buffer (20 mM HEPES, 50 mM NaCl, 1.5 mM CaCl2, 1% BSA, 0.1 mg/ml lysine, 0.01% […], pH 7.5) (Parsell et al (1996) J. Biol. Chem. 271, 27936-27941) to give 2×10^6 cells/well in a 96-well plate. The cells were incubated in binding buffer with ^33P-labeled H2 (B33) relaxin (100 pM: labeled as previously described (Tan et al (1999) Br. J. Pharmacol. 127, 91-98) at 25° C. for 90 min in the absence or presence of increasing concentrations of unlabeled H1, H2 and H3 relaxin ([…]). Non-specific binding was defined with H2 relaxin (1 μM). Cells were harvested using a Packard 96-well plate cell harvester and Whatman GF/C glass fibre filters treated with 0.5% polyethylenimine. The filters were washed three times with modified binding buffer (20 mM HEPES, 50 mM NaCl, 1.5 mM CaCl2), dried in a 37° C. oven, and the radioactivity counted by liquid scintillation spectrometry (TopCount™, Canberra Packard, Australia).

ability to stimulate cAMP responses [1]	Molecule	ability to displace 125I-labeled H2 relaxin binding to the anti-H2 relaxin antibody [2]	Ki [3]
inability	hINSL3: Human INSL3 synthesized using the same methodology used for ovine INSL3 (chain 1 AAATNPARYCCLSGCTQQDLLTLCPY; chain 2 PTPEMREKLCGHHFVRALVRVCGGPRWSTEA)	–	–
–	H2 relaxin: recombinant H2 relaxin, a gift from the Connetics Corporation	able to displace	–
–	CC[C@H](C)[C@@H]1NC(=O)[C@H](Cc2ccccc2)NC(=O)[C@H](CCC(=O)O)NC(=O)[C@H](CCCNC(=N)N)NC(=O)CNC(=O)[C@@H](NC(=O)[C@H](CC(C)C)NC(=O)[C@H](CCCNC(=N)N)NC(=O)[C@@H](NC(=O)CNC(=O)[C@H](Cc2ccc(O)cc2)NC(=O)[C@@H]2CCCN2C(=O)[C@H](C)NC(=O)[C@H](C)NC(=O)[C@@H](N)CCCNC(=N)N)C(C)C)CSSC[C@@H]2NC(=O)[C@@H](NC(=O)[C@H](CO)NC(=O)[C@H](CO)NC(=O)[C@H](CO)NC(=O)[C@H](CC(C)C)NC(=O)CNC(=O)[C@H](C)NC(=O)[C@H](CC(C)C)NC(=O)[C@@H](NC(=O)[C@@H](N)CC(=O)O)C(C)C)CSSC[C@H](NC(=O)CNC(=O)[C@H](Cc3c[nH]c4ccccc34)NC(=O)[C@H](CCCCN)NC2=O)C(=O)N[C@@H](CO)C(=O)N[C@@H](CCCCN)C(=O)N[C@@H](CO)C(=O)N[C@@H](CCC(=O)O)C(=O)N[C@@H]([C@@H](C)CC)C(=O)N[C@@H](CO)C(=O)N[C@@H](CO)C(=O)N[C@@H](CC(C)C)C(=O)N[C@H](C(N)=O)CSSC[C@@H](C(=O)NCC(=O)NCC(=O)N[C@@H](CO)C(=O)N[C@@H](CCCNC(=N)N)C(=O)N[C@@H](Cc2c[nH]c3ccccc23)C(N)=O)NC(=O)[C@H]([C@@H](C)O)NC(=O)[C@H](Cc2ccccc2)NC(=O)[C@H]([C@@H](C)CC)NC(=O)[C@H](C(C)C)NC(=O)[C@H](C)NC(=O)[C@H](CCCNC(=N)N)NC1=O [H3 relaxin, Human Relaxin H3 [hR]x-3 A (1-24) Amide-B (1-27) Amide]	poor cross reactivity	31.6 nM
inability	bovine insulin [bINSL]	–	–

From patent US8841254B2, “Method for treatment of anxiety” (Howard Florey Institute of Experimental Physiology and …, priority 2001, dated 2014)
